The results in this text go back to US5256658A, “Angiotensin II inhibitors” (Ortho Pharmaceutical Corporation, priority 1993, dated 1993).

Assay [1] concerns angiotensin II receptor. In words: Screening Potential Angiotensin II Receptor Antagonists in Salt-Depleted Normotensive Rats. Format: in vivo, rat (Sprague-Dawley). As to the method: 2. Test Procedure for Screening Potential Angiotensin II Receptor Antagonists in Salt-Depleted Normotensive Rats
Purpose: This test is designed to detect hypotensive effects of a compound after oral dosing in normotensive animals made renin-dependent by salt depletion.
Method: Male 350-450 g Sprague-Dawley rats are implanted with teflon microcannulae via the middle caudal artery under 20 mg/kg intravenous Brevital® anesthesia and permitted a 4-7 day surgical recovery period. Throughout recovery and testing animals are individually housed unrestrained in standard rat metabolism cages and receive continuous 0.5 ml/h intra-arterial 0.25N saline infusion through a spring-shielded swivelling tether connected to an infusion/blood pressure recording system to maintain arterial cannula patency. Animals are maintained on Low Sodium (0.03%) Purina Rat Chow #5881 throughout the study. After the recovery period animals are given oral 50 mg/kg furosemide (Lasix, Hoechst-Roussel Pharmaceutical) doses on two consecutive days to produce marked diuresis and plasma volume depletion that makes maintenance of normal blood pressure highly dependent on function of the renin-angiotensin-aldosteronesystem. Three hours after the second furosemide dose, rats are given test compound uniformly suspended in 1% methylcellulose (n=3/dose level) or 1 mL 1% methylcellulose vehicle (n=3) orally by gavage and blood pressure is continuously recorded for 24 h using a Buxco computerized data recording system. Compound-induced changes in blood pressure are compared to concurrent vehicle control blood pressures in order to detect drug effect.
Interpretation: Prior to salt depletion, normotensive rats typically show a plasma renin activity (PRA, ng angiotensin I/mL plasma/h, RIA) of 0.7. After the salt-depletion protocol PRA values taken 3 h after the furosemide dose have risen to about 7.4.
Compounds that decrease blood pressure 10 or more mmHg (MAP) compared to concurrent control after oral dosing are considered active in this test. Maximum possible response is about -35 mmHg. […]

The target of assay [2] is T1, angiotensin II receptor (Oryctolagus cuniculus, UniProt P34976).
T1 sequence (P34976 1-359): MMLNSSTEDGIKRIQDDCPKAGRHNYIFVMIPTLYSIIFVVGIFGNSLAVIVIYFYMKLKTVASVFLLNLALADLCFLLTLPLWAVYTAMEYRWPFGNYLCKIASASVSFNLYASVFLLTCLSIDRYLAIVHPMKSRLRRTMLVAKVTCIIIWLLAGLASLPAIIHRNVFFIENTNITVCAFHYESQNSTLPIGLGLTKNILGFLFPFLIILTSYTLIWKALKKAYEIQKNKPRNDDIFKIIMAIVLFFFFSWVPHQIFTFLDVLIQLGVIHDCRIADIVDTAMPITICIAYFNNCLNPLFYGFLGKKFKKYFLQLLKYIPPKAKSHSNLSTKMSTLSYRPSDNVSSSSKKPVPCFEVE
From the text: Inhibition of Angiotensin II Dose-Response in Rabbit Thoracic Aorta:
Purpose: To identify competitive receptor antagonists of an angiotensin II-1 activity, i.e., angiotensin II-induced vasoconstriction in in vitro aortic rings.
Procedure: 1.8 to 2.3 kg New Zealand white rabbits are sacrificed with an intravenous sodium pentobarbital overdose and the thoracic aorta gently dissected free from the aortic root to the level of the diaphragm, into ice cold Krebs bicarbonate buffer. The aorta is gently freed of clots and adventitia and cleanly cut with a scalpel into 5 mm segments. Each ring is suspended from a Gould isotonic force transducer in a tissue bath containing 15 mL oxygenated Krebs bicarbonate buffer regulated at 37° C. Initial tension is adjusted to 4.0 g and equilibrated over three 20-min wash periods to achieve a baseline tension of 3.0 g. Graded angiotensin II doses are given cumulatively to achieve a maximal contraction. Three 20-min washes are performed to remove the initial angiotensin II effect. […]
Analysis: Angiotensin II vasoconstrictor tension in grams is expressed as a percent of maximal contraction for the before and after test compound angiotensin II dose-responses. Angiotensin II ED50 and ED90 values are determined from the angiotensin II dose-response curves generated before and after test compound. […]

The subject of assay [3] is angiotensin II receptor. In words: Oral activity in the spontaneously hypertensive rat, as determined in test procedure 2. Format: in vivo.

As to `CCCCc1nc(Cl)c(CO)n1Cc1ccc(-c2ccccc2-c2nn[nH]n2)cc1` [DuP-753], in the assay with angiotensin II receptor [1] (normotensive rats that have not been salt-depleted), the blood pressure response result is “does not change”. Besides, in the assay with angiotensin II receptor [1] (salt-depleted rats after DuP-753 treatment, RIA), the “plasma renin activity (PRA)” value was “about 41.4 ng angiotensin I/mL plasma/h”. In the assay with angiotensin II receptor [1] (salt-depleted rats, typical response), the “blood pressure decrease (mean arterial pressure, MAP)” value is “about 35 mmHg”.
For the molecule `C[C@@H]1CN(Cc2ccc(-c3ccccc3-c3nn[nH]n3)cc2)C[C@H](C)O1` [cis-2,6-Dimethyl-4-[4-(2'-tetrazolophenyl)phenylmethyl]morpholine], the Kb on angiotensin II receptor [2] was 123 nM. Also, in the assay on angiotensin II receptor [3], the “maximum mean arterial pressure drop” value is reported as 31 mm Hg and the oral activity result is listed as “good oral activity”. In the assay with angiotensin II receptor [3] (duration of blood pressure effect), this molecule showed a duration of 12 h.
